Assay results: ChEMBL document CHEMBL5390208, “Bioactive Isoquinoline Alkaloids with Diverse Skeletons from Fissistigma polyanthum” (J Nat Prod, 2023)
Activity calls are given as the source filed them. The rule behind the calls is not given here.

How the values were obtained:
[1] = target: T1, Amyloid-beta precursor protein (Homo sapiens, UniProt P05067); test: Inhibition of amyloid beta 42 (unknown origin) aggregation incubated for 24 hrs by ThT assay
[2] = Antioxidant activity assessed as ABTS radical scavenging activity incubated for 10 min by spectrophotometric analysis; format: functional
[3] = target: T1, Amyloid-beta precursor protein; test: Inhibition of amyloid beta 42 (unknown origin) aggregation at 50 uM incubated for 24 hrs by ThT assay relative to control
Acetylcholinesterase = Acetylcholinesterase (Homo sapiens, UniProt P22303); test: Inhibition of AChE (unknown origin) using ATCI as substrate preincubated for 15 min followed by substrate addition measured after 40 min by Ellman's method
Sequence of Acetylcholinesterase (P22303 whole entry): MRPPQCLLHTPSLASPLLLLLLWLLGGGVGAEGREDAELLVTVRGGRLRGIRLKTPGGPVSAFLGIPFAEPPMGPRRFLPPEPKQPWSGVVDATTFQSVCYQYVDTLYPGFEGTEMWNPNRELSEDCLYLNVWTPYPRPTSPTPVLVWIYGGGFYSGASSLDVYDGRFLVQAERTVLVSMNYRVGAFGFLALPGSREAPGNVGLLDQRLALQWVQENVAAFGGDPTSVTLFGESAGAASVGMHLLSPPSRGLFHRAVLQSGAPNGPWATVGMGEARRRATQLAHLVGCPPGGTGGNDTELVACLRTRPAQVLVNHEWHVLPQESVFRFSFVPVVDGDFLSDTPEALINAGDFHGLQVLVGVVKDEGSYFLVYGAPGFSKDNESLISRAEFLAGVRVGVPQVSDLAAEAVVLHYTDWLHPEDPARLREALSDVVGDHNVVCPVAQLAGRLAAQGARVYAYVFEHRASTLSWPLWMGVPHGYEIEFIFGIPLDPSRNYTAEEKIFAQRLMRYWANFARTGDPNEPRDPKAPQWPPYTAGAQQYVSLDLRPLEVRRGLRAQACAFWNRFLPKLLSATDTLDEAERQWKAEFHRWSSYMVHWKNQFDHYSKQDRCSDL

[4] = Selectivity ratio, ratio of inhibition of BChE (unknown origin) to inhibition of AChE (unknown origin)
Cholinesterase = Cholinesterase (Homo sapiens, UniProt P06276); test: Inhibition of BChE (unknown origin) using BTCI as substrate preincubated for 15 min followed by substrate addition measured after 40 min by Ellman's method
Sequence of Cholinesterase (P06276 whole entry): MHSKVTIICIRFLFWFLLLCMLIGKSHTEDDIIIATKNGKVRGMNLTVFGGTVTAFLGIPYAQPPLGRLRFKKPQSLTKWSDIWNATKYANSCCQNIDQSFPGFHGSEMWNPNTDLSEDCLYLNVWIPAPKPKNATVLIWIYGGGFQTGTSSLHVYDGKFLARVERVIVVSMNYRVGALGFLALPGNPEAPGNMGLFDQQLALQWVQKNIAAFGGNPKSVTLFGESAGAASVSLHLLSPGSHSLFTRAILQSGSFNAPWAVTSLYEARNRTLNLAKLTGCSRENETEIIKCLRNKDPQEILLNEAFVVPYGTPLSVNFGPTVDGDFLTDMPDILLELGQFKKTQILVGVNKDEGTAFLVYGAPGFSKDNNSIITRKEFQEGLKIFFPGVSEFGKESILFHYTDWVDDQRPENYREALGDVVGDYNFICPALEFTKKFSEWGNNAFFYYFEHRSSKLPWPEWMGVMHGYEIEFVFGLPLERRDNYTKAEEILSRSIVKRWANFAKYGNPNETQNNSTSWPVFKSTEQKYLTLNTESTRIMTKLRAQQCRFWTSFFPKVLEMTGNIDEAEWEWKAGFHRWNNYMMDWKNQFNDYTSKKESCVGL

[5] = target: T1, Amyloid-beta precursor protein; test: Inhibition of amyloid beta 42 (unknown origin) aggregation assessed as reduction in amyloid beta fibril formation incubated for 72 hrs by Congo Red dye based UV- spectrophotometric analysis

T1 sequence (P05067 whole entry): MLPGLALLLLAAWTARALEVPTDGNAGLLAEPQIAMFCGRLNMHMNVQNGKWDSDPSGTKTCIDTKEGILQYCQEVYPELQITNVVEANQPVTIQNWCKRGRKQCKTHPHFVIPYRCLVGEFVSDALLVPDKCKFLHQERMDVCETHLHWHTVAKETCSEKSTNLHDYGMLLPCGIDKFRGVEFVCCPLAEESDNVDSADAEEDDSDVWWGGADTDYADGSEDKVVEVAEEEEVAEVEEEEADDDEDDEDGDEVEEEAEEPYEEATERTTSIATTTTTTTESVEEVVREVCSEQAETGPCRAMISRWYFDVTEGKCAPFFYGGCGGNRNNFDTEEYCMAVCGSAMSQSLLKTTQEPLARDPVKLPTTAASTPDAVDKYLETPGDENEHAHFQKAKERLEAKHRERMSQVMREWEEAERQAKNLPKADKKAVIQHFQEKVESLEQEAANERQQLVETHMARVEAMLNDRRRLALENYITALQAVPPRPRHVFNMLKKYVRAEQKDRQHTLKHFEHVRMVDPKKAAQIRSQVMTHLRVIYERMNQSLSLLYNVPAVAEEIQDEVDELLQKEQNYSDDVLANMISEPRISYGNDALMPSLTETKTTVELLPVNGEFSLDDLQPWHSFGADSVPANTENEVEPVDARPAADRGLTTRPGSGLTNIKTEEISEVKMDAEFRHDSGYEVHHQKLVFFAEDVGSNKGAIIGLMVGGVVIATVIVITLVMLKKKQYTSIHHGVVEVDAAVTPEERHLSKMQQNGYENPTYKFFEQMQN

Structure (SMILES)	IC50 [1] [µM]	IC50 [2] [µM]	inhibition [3]	IC50 (Acetylcholinesterase) [µM]	Ratio IC50 [4]	IC50 (Cholinesterase) [µM]	inhibition [5]
COc1ccc2c(c1OC)c1c3c4c(cc5c(c42)OCO5)CCN3C(=O)C1=O	> 50	> 50	10.9%	33	7.6	251	–
COc1ccc2c(c1)C(=O)c1nccc3cc4c(c-2c13)OCO4 [ATHEROSPERMIDINE]	31.9	> 50	86.2%	10.9	> 27.5	> 300	Active
COc1cc(O)c2c(c1)C[C@@H]1c3c(cc4c(c3-2)OCO4)CC[N@@+]1(C)[O-]	> 50	> 50	32.8%	> 300	–	> 300	–
COc1cc2c(cc1O)CC[n+]1cc3c(OC)c(O)ccc3cc1-2	50	26.5	30%	17.8	6.7	119	–
COc1ccc(C[C@H]2c3c(ccc(OC)c3O)CCN2C)cc1	> 50	38.3	26.6%	25.6	1.3	33	–
COc1cc2c(c(O)c1OC)CC[N@+]1(C)Cc3c(ccc(O)c3OC)C[C@@H]21	–	43.6	inactive	131	> 2.3	> 300	–
COc1cc(O)cc2c1-c1c3c(cc4c1[C@@H](C2)N(C)CC4)OCO3	35.7	16.5	76%	> 300	–	> 300	Active
COc1cc2c(c(O)c1OC)CC[n+]1cc3c(OC)c(O)ccc3cc1-2	–	> 50	inactive	16.4	> 18.3	> 300	–
COc1cc2c(cc1OC)[C@@H]1Cc3ccc(O)c(OC)c3CN1CC2	> 50	> 50	10.7%	211	0.6	124	–
COc1ccc2c(c1)C[C@H]1NCCc3cc4c(c-2c31)OCO4	> 50	> 50	28%	126	0.5	68.5	–
COC1=CC(=O)c2c(cc3c4c(cc5c(c24)OCO5)CCN3C)C1=O	> 50	> 50	30.7%	221	0.4	83.5	–
COC1=C(CC(=O)CCc2ccccc2)C(=O)O[C@@H]1O	26.6	> 50	74.4%	> 300	–	> 300	Active
O=C1C(=O)N2CCc3cc4c(c5c3c2c1c1ccccc15)OCO4	> 50	> 50	47.6%	51.3	0.3	13.7	–
COc1cc(O)c2c(c1)C[C@@H]1c3c(cc4c(c3-2)OCO4)CCN1C	> 50	14.8	15.1%	85	1.1	94.5	–
COc1cc(O)c2c(c1)C[C@@H]1c3c(cc4c(c3-2)OCO4)CC[N@+]1(C)[O-]	> 50	9.9	37.9%	> 300	–	> 300	–
COc1cc(O)c2c(c1)C[C@H]1NCCc3c(OC)c4c(c-2c31)OCO4	> 50	13.5	44.5%	162	0.9	141	–
COc1cc(O)c2c(c1)C[C@H]1NCCc3cc4c(c-2c31)OCO4	> 50	> 50	10.2%	> 300	–	> 300	–
COc1cc2c(c(O)c1OC)CCN1Cc3c(ccc(O)c3OC)C[C@@H]21	–	> 50	inactive	89	> 3.4	> 300	–
COc1cc2c(cc1O)[C@@H]1Cc3ccc(OC)c(O)c3CN1CC2 [SCOULERINE]	> 50	43.8	3.3%	143	0.4	61.3	–
Cc1c(C)c2c(c(C)c1O)CCC(C)(C(=O)O)O2 (stereo unspecified) [TROLOX]	–	11	–	–	–	–	–
COc1ccc2c(c1)C[C@@H]1c3c(cc4c(c3-2)OCO4)CCN1C	> 50	> 50	38.2%	26.2	1.4	36.4	–
